Assay results reported in PubChem BioAssay (NCI).
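Results reflect a 48-hour exposure of cells in 96-well plates to compound at five concentrations. GI50 marks 50% less growth. TGI: total growth inhibition.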

Experiments:
Experiment in all cases: NCI tumour cell line growth inhibition, 48 h
SF-539 CNS = system: SF-539 CNS
HCT-15 colon = system: HCT-15 colon
HT29 colon = system: HT29 colon
A498 renal = system: A498 renal
786-0 renal = system: 786-0 renal
SR leukemia = system: SR leukemia
OVCAR-4 ovarian = system: OVCAR-4 ovarian
HCC-2998 colon = system: HCC-2998 colon
SK-OV-3 ovarian = system: SK-OV-3 ovarian
CAKI-1 renal = system: CAKI-1 renal

Structure (SMILES)	TGI (SF-539 CNS)	TGI (HCT-15 colon)	TGI (HT29 colon)	TGI (A498 renal)	TGI (786-0 renal)	TGI (SR leukemia)	TGI (OVCAR-4 ovarian)	TGI (HCC-2998 colon)	GI50 (SF-539 CNS)	GI50 (HCT-15 colon)	GI50 (HT29 colon)	GI50 (A498 renal)	GI50 (786-0 renal)	GI50 (SK-OV-3 ovarian)	TGI (SK-OV-3 ovarian)	GI50 (SR leukemia)	GI50 (CAKI-1 renal)	TGI (CAKI-1 renal)	GI50 (OVCAR-4 ovarian)	GI50 (HCC-2998 colon)
COC1(C)C(=O)N2C1N(C(=O)OCc1ccccc1)CC2(C)C (stereo not given)	> 100 µM	> 100 µM	> 100 µM	> 100 µM	> 100 µM	> 100 µM	> 100 µM	> 100 µM	–	–	–	–	–	–	–	–	–	–	–	–
C[C@H]1c2ccccc2CN1CCCOc1cc2c(cc1OCC1CC1)C1(CCCC1)C(N)=N2	1.89 µM	5.1 µM	2.67 µM	5.69 µM	8.2 µM	2.87 µM	7.42 µM	1.78 µM	0.922 µM	1.46 µM	1.05 µM	1.56 µM	2.06 µM	4.84 µM	10.7 µM	1.15 µM	1.79 µM	7.65 µM	1.83 µM	0.931 µM
COc1ccc2c(c1)C(=O)c1c-2n(CCCN)c(=O)c2cc([N+](=O)[O-])ccc12	< 0.01 µM	> 100 µM	–	< 0.01 µM	< 0.01 µM	< 0.01 µM	–	–	< 0.01 µM	1.77 µM	–	< 0.01 µM	< 0.01 µM	< 0.01 µM	< 0.01 µM	< 0.01 µM	< 0.01 µM	< 0.01 µM	–	–
COC(=O)/C(=C\c1ccco1)P(=O)(OC)OC	65.9 µM	> 100 µM	69.7 µM	> 100 µM	> 100 µM	> 100 µM	33.7 µM	> 100 µM	–	–	–	–	–	–	> 100 µM	–	–	65 µM	–	–
CCN1C(=O)N(CC)C2C1NN=c1s/c(=C\c3ccc[nH]3)c(=O)n12 (stereo not given)	1.05 µM	> 100 µM	–	0.622 µM	> 100 µM	> 38.2 µM	> 100 µM	> 100 µM	0.246 µM	0.337 µM	0.342 µM	0.102 µM	0.614 µM	0.301 µM	> 100 µM	0.148 µM	0.301 µM	> 100 µM	1.68 µM	1.82 µM
O=NN(CCCl)C(=O)NC1CCC(=O)NC1=O (stereo not given)	309 µM	846 µM	> 1250 µM	470 µM	377 µM	674 µM	> 993 µM	> 1160 µM	–	–	–	–	–	–	> 1010 µM	–	–	659 µM	–	–
O=C1CSC(c2ccccc2O)N1c1nnc(Cn2ccnc2)o1 (stereo not given)	68.5 µM	> 100 µM	> 100 µM	46 µM	> 100 µM	> 100 µM	37.2 µM	89.5 µM	8.83 µM	3.04 µM	5 µM	21 µM	7.8 µM	27.6 µM	> 100 µM	2.93 µM	2.19 µM	10.2 µM	4.51 µM	22.8 µM
O=C1/C(=C/c2cccc(Br)c2)COc2ccc(O)c(O)c21	3.45 µM	3.88 µM	3.62 µM	4.74 µM	4.1 µM	2.81 µM	2.85 µM	3.1 µM	1.58 µM	0.866 µM	1.83 µM	2.01 µM	1.46 µM	3.12 µM	10.6 µM	0.349 µM	1.21 µM	2.47 µM	1.51 µM	1.67 µM
Cc1c2ccncc2c(C)c2c1c1cc(CO)ccc1n2C	4.2 µM	10 µM	1.78 µM	0.0531 µM	5.07 µM	2.65 µM	1.82 µM	3.42 µM	0.73 µM	0.354 µM	0.338 µM	0.02 µM	0.596 µM	0.784 µM	3.71 µM	0.268 µM	–	–	0.285 µM	0.72 µM
Cc1oc2c(c1C(=O)N1CC[C@@H](N)C1)C(=O)c1c(c(O)c3ccccc3c1O)C2=O	11.7 µM	11.9 µM	6.66 µM	18.9 µM	17.3 µM	3.48 µM	11.8 µM	11.7 µM	2.55 µM	1.49 µM	1.68 µM	3.38 µM	3.93 µM	1.1 µM	7.86 µM	0.224 µM	0.611 µM	11.4 µM	2.92 µM	3.11 µM
CC1(C)CC2=C(Sc3ccccc3N2)C(=O)C1C(=O)C(=O)Nc1cc(Cl)ccc1Cl (stereo not given)	> 100 µM	> 100 µM	> 100 µM	> 100 µM	> 100 µM	> 100 µM	> 100 µM	> 100 µM	–	–	–	–	–	–	> 100 µM	–	–	> 100 µM	–	–
O=c1cccc(C#CC#CCCCO)o1	> 43.5 µM	5.3 µM	> 100 µM	40.5 µM	14 µM	2.37 µM	> 57.9 µM	7.38 µM	4.6 µM	2.11 µM	4.66 µM	23.7 µM	5.27 µM	18.5 µM	45.4 µM	0.158 µM	2.9 µM	8.17 µM	8.59 µM	2.58 µM
COc1cc2c(cc1-c1coc3cc(OCC=C(C)C)ccc3c1=O)OCO2	> 100 µM	32.8 µM	–	> 100 µM	61.8 µM	33.3 µM	> 100 µM	44.8 µM	–	–	–	–	–	–	> 100 µM	–	–	58.5 µM	–	–
NC(=O)c1cccc(-c2cc(C(N)=O)ccc2Cl)c1	4.85 µM	> 100 µM	> 100 µM	15.3 µM	> 100 µM	18.3 µM	> 100 µM	> 100 µM	1.65 µM	0.846 µM	1.19 µM	3.03 µM	5.37 µM	5.63 µM	> 100 µM	0.389 µM	2.66 µM	> 100 µM	9.21 µM	7.43 µM
O=C(O)COc1ccc(C(=O)/C(SS/C(C(=O)c2ccc(OCC(=O)O)c(Cl)c2Cl)=C2\C=C(c3ccc(Br)cc3)SS2)=C2/C=C(c3ccc(Br)cc3)SS2)c(Cl)c1Cl	26.2 µM	> 40.9 µM	> 100 µM	> 91.7 µM	> 45.3 µM	8.59 µM	> 50.1 µM	> 42.8 µM	–	–	–	–	–	–	> 89.5 µM	–	–	99.4 µM	–	–
COc1cccc(C2C(C#N)=C(N)Oc3c2ccc2ccccc32)c1 (stereo not given)	0.0695 µM	10.2 µM	4.71 µM	13.6 µM	12.3 µM	> 66.7 µM	18.6 µM	1.1 µM	0.0166 µM	< 0.01 µM	0.0926 µM	0.0108 µM	0.0364 µM	0.0431 µM	18.3 µM	< 0.01 µM	< 0.01 µM	14 µM	–	0.0355 µM

Structure (SMILES)	TGI (SF-539 CNS)	TGI (HCT-15 colon)	TGI (HT29 colon)	TGI (A498 renal)	TGI (786-0 renal)	TGI (SR leukemia)	TGI (OVCAR-4 ovarian)	TGI (HCC-2998 colon)	GI50 (SF-539 CNS)	GI50 (HCT-15 colon)	GI50 (HT29 colon)	GI50 (A498 renal)	GI50 (786-0 renal)	GI50 (SK-OV-3 ovarian)	TGI (SK-OV-3 ovarian)	GI50 (SR leukemia)	GI50 (CAKI-1 renal)	TGI (CAKI-1 renal)	GI50 (OVCAR-4 ovarian)	GI50 (HCC-2998 colon)
COCCOCOC(C)(C)[C@H](CCOC(C)=O)O[Si](c1ccccc1)(c1ccccc1)C(C)(C)C	–	> 100 µM	28.5 µM	68.4 µM	58.9 µM	14 µM	> 100 µM	26 µM	–	–	–	–	–	–	> 100 µM	–	–	> 100 µM	–	–
OCc1ccc(N2CCCC2)cc1Cl	> 100 µM	> 100 µM	76.4 µM	0.289 µM	> 100 µM	> 100 µM	12.3 µM	69.9 µM	> 58.7 µM	31 µM	7.9 µM	0.147 µM	27.5 µM	27.3 µM	> 90.6 µM	46.2 µM	14.3 µM	50.3 µM	1.83 µM	15.7 µM
O=S(=O)(NC1=NCCN1C(=S)SN1CCn2c1nsc2=S)c1cccc(OC(F)(F)F)c1	37.7 µM	22.4 µM	26.4 µM	42 µM	27.1 µM	> 100 µM	27.9 µM	16.1 µM	19.8 µM	10.5 µM	6.91 µM	22.6 µM	12 µM	23.5 µM	46.5 µM	2.77 µM	17.8 µM	43.5 µM	12.5 µM	5.16 µM
Nc1n[nH]c2ccc([C@@H]3Nc4cc5[nH]ncc5cc4[C@H]4C5CCC(C5)[C@@H]34)cc12 (stereo not given in full)	3.17 µM	> 100 µM	> 44.3 µM	0.822 µM	> 66.7 µM	> 100 µM	> 100 µM	49.1 µM	0.269 µM	0.431 µM	0.367 µM	0.174 µM	0.709 µM	16 µM	> 100 µM	0.564 µM	0.355 µM	> 39.2 µM	9.3 µM	0.789 µM
COc1ccc(Cc2nc3ccccc3s2)cc1OC	31.2 µM	60.7 µM	35.8 µM	49.5 µM	31.9 µM	57.1 µM	37.7 µM	49 µM	–	–	–	–	–	–	43.5 µM	–	–	31.3 µM	–	–
CC(=O)[CH-]C(=O)Nc1ccccc1.CC(=O)[CH-]C(=O)Nc1ccccc1.CC[O-].CC[O-].[Ti+4]	> 100 µM	> 100 µM	> 100 µM	> 100 µM	> 100 µM	> 100 µM	> 100 µM	> 100 µM	> 100 µM	> 100 µM	> 100 µM	> 100 µM	> 100 µM	> 100 µM	> 100 µM	> 100 µM	> 100 µM	> 100 µM	> 100 µM	> 100 µM
COc1cccc(CC(C)=C(c2ccc(OCCCN(C)C)cc2)c2ccc(OCCCN(C)C)cc2)c1	0.801 µM	0.95 µM	0.912 µM	6.37 µM	0.771 µM	1.21 µM	1.41 µM	0.906 µM	0.437 µM	0.478 µM	0.443 µM	3.19 µM	0.416 µM	4.04 µM	7.57 µM	0.44 µM	0.683 µM	1.95 µM	0.575 µM	0.446 µM
C/C(=C\Cc1cc(O)ccc1O)CCc1c(C)c(O)c(O)c(C=O)c1C	42.1 µM	> 100 µM	64.8 µM	> 100 µM	62.2 µM	51 µM	> 100 µM	> 100 µM	–	–	–	–	–	–	95.7 µM	–	–	85.6 µM	–	–
O/N=C1\CCc2nonc2\C1=N/Nc1ccccc1	> 100 µM	> 100 µM	> 100 µM	–	> 100 µM	> 100 µM	> 100 µM	> 100 µM	–	–	–	–	–	–	> 100 µM	–	–	> 100 µM	–	–
CC(C)=Nn1cnc(C(=N)C#N)c1N	> 100 µM	> 100 µM	> 100 µM	–	> 100 µM	> 100 µM	> 100 µM	> 100 µM	–	–	–	–	–	–	> 100 µM	–	–	> 100 µM	–	–
CC(=O)C12C[C@](C#N)(N3CCCCCC3)C1C=Cc1ccccc12 (stereo not given in full)	> 100 µM	> 100 µM	> 100 µM	–	> 100 µM	> 100 µM	> 100 µM	> 100 µM	–	–	–	–	–	–	> 100 µM	–	–	> 100 µM	–	–
COc1ccc(-c2onc(-c3c(C)cc(C)cc3C)c2C2=NCCN2)cc1	44.1 µM	> 100 µM	> 100 µM	–	> 100 µM	> 100 µM	> 100 µM	> 100 µM	–	–	–	–	–	–	> 100 µM	–	–	> 100 µM	–	–
COC(=O)C#CCC1CCCC1C1SCCS1 (stereo not given)	> 100 µM	–	> 100 µM	> 100 µM	> 100 µM	84.3 µM	> 100 µM	> 100 µM	–	–	–	–	–	–	> 100 µM	–	–	> 100 µM	–	–
O=C1c2ccccc2C(=O)N1C1(C(=O)NC2(C(=O)O)CCCC2)CCCC1	–	> 100 µM	> 100 µM	> 100 µM	> 100 µM	> 100 µM	> 100 µM	> 100 µM	–	–	–	–	–	–	> 100 µM	–	–	> 100 µM	–	–
CC1C2CC(C/C2=N/O)C1(C)C (stereo not given)	> 100 µM	–	> 100 µM	> 100 µM	> 100 µM	> 100 µM	> 100 µM	> 100 µM	–	–	–	–	–	–	> 100 µM	–	–	> 100 µM	–	–
COc1ccc(Oc2ccccc2NC(=O)CNC(=O)c2cccc3ccccc23)cc1	–	> 25 µM	19.4 µM	10.4 µM	> 25 µM	> 25 µM	> 25 µM	> 25 µM	–	0.59 µM	0.576 µM	0.564 µM	1.14 µM	1.02 µM	> 25 µM	0.166 µM	–	–	2.26 µM	1.41 µM
